This test deals with gastrointestinal nematodes. The test can be described thus: Influence of simulated rain on reduction of nematode egg output in feces of cattle after pour-on. It counts as in vivo, Cooperia, Haemonchus, Ostertagia and Trichostrongylus. To be noted: at all times posttreatment regardless of exposure to simulated rainfall. The text has this:
The objective of this study is to determine the potential effect of rainfall on the efficacy of a pour-on formulation of 23-(O-methyloxime)-LL-F28249α (0.5% w/v) against gastrointestinal nematodes. Formulation 10 reported in Example 2, above, is employed for the study.
Forty-eight mixed beef breed heifers are ranked according to the average of the day −3 and day −2 fecal nematode egg counts and randomly assigned to the following groups of 6 animals each:
All cattle treated with 23-(O-methyloxime)-LL-F28249α pour-on are treated with 0.5 mg 23-(O-methyloxime)-LL-F28249α per kg of body weight. All animals exposed to simulated rain are sprayed with the equivalent of 1 inch of water for 30 minutes.
Following treatment, cattle are housed in outdoor pens which are partially covered by a three sided shed. Cattle remain outdoors during the entire posttreatment period. However, they are confined to a covered portion of the pen when it is raining or rainfall is imminent. […]
The simulated rainfall apparatus used in this trial consists of a 12 feet×12 feet pen with right angle directional spray nozzles in each corner. It is calculated that 89.75 gallons of water applied to this size pen are the equivalent of 1 inch of rain. […]
Fecal samples are taken from all animals on days 7, 14 and 21 posttreatment to evaluate nematode egg counts. The values are expressed as number of eggs per 1 g of feces.

The text below walks through data of US6514951B1, “Pour-on formulations effective for the control of internal and external parasites of homothermic animals” (American Cyanamid Company, priority 1989, dated 2003).

On to `CO/N=C1\C[C@]2(C[C@@H]3CC(C/C=C(\C)C[C@@H](C)/C=C/C=C4\CO[C@@H]5[C@H](O)C(C)=C[C@@H](C(=O)O3)[C@]45O)O2)O[C@H](/C(C)=C/C(C)C)[C@H]1C` [23-(O-methyloxime)-LL-F28249α], for which the “nematode egg counts (in words)” value is reported as “significantly reduces”.
